Experimental data published in US20250163104A1, “MACROCYCLIC IMMUNOMODULATORS” (priority 2021, published 2025).
Where a SMILES comes first, the peptide text is derived from it. Bridges are numbered along the chain shown (N, C = ends). [ ]: non-standard residue; d: D form. The star is where a group is joined. Phe(4-COOH) = N[C@@H](Cc1ccc(C(=O)O)cc1)C(=O)O; Phe(3,5-F2) = N[C@@H](Cc1cc(F)cc(F)c1)C(=O)O; Asp(3,3-Me2) = CC(C)(C(=O)O)[C@H](N)C(=O)O; Phe(2,4-F2) = N[C@@H](Cc1ccc(F)cc1F)C(=O)O; Bip = N[C@@H](Cc1ccc(-c2ccccc2)cc1)C(=O)O; Phe(3-Me) = Cc1cccc(C[C@H](N)C(=O)O)c1; Val(3-OH) = CC(C)(O)[C@H](N)C(=O)O; αMeF = C[C@](N)(Cc1ccccc1)C(=O)O; 4Pal = N[C@@H](Cc1ccncc1)C(=O)O; Cha = N[C@@H](CC1CCCCC1)C(=O)O; Cit = NC(=O)NCCC[C@H](N)C(=O)O; Carboxymethyl = O=C(O)C*; Nle = CCCC[C@H](N)C(=O)O; Orn = NCCC[C@H](N)C(=O)O; Pra = C#CC[C@H](N)C(=O)O; Dab = NCC[C@H](N)C(=O)O; Dap = NC[C@H](N)C(=O)O

biological target: T1, human PD-1 / PD-L1-Ig binding on Jurkat cell line over-expressing human PD-1 (Jurkat-PD-1) (Homo sapiens, UniProt Q15116); assay: Jurkat-PD-1 Cell Binding High-Content Screening Assay (CBA); assay type: cell-based; conditions: Jurkat HPD1_PDL1 IC50, Jurkat-PD-1 cells, PE-labeled PD-L1-Ig 20 nM final
T1 construct: expressed in transfected cells; host or cells: Jurkat
Outline: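 Compounds were preincubated with Jurkat-hPD-1 cells in DMEM plus 10% fetal calf serum for 2 h at 37° C. Phycoerythrin-labeled PD-L1-Ig (20 nM final) was then added for 1 hour. Cells were fixed in 4% paraformaldehyde with Hoechst 33342, and bound fluorescence was quantified by high-content imaging.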

T1 sequence (Q15116 25-288): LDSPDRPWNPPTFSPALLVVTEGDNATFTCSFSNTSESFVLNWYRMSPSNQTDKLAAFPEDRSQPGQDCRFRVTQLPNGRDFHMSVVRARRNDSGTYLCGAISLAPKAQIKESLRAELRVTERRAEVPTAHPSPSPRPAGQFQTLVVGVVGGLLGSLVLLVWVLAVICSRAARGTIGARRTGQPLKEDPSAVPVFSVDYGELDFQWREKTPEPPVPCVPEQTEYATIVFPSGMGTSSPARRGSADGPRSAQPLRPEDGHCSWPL

SMILES	IC50
CC(C)C[C@H]1NC(=O)[C@H](CCCN)NC(=O)[C@H](C(C)C)NC(=O)[C@H](Cc2ccc(-c3ccccc3)cc2)NC(=O)[C@H](C(C)C)NC(=O)[C@H](Cc2c[nH]c3ccccc23)NC(=O)[C@H](CC(=O)O)NC(=O)[C@H](Cc2ccc(C(=O)O)cc2)NC(=O)[C@H](Cc2ccc(OCC(=O)O)cc2)NC(=O)CSC[C@@H](C(=O)N[C@@H](CCN)C(=O)N[C@@H](CCCNC(=N)N)C(=O)O)NC(=O)[C@H](CCCN)NC(=O)[C@H](C(C)C)NC(=O)[C@H](CC2CCCCC2)NC(=O)[C@H](CCN)NC1=O [Compound 2587] ({CH2CO}-Y(Carboxymethyl)[Phe(4-COOH)]DWV[Bip]V[Orn][dL][Dab][Cha]V[Orn]C[Dab]R-OH; thioether N-14)	18.4 nM

same assay, conditions: Jurkat-PD-1 cells, PE-labeled PD-L1-Ig 20 nM final; read-out: Jurkat HPD1_PDL1 IC50

SMILES	IC50
Cc1cccc(C[C@@H]2NC(=O)[C@H](CC(=O)O)NC(=O)[C@H](Cc3ccc(C(=O)O)cc3)NC(=O)[C@H](Cc3ccncc3)NC(=O)CSC[C@@H](C(=O)N[C@@H](CCN)C(N)=O)NC(=O)[C@H](CO)NC(=O)[C@H](C(C)(C)O)NC(=O)[C@H](CC3CCCCC3)NC(=O)[C@H](CCN)NC(=O)[C@@H](CC(C)C)NC(=O)[C@H](C(C)(C)C(=O)O)NC(=O)[C@H](Cc3ccc(OCC(=O)O)cc3)NC(=O)[C@H](Cc3ccc(-c4ccccc4)cc3)NC(=O)[C@H](Cc3ccc(OCC(=O)O)cc3)NC2=O)c1 [Compound 2072] ({CH2CO}-[4Pal][Phe(4-COOH)]D[Phe(3-Me)]Y(Carboxymethyl)[Bip]Y(Carboxymethyl)[Asp(3,3-Me2)][dL][Dab][Cha][Val(3-OH)]SC[Dab]-NH2; thioether N-14)	19.5 nM
Cc1cccc(C[C@@H]2NC(=O)[C@H](CC(=O)O)NC(=O)[C@H](Cc3ccc(O)cc3)NC(=O)[C@H](CC(N)=O)NC(=O)CSC[C@@H](C(=O)N[C@@H](C)C(N)=O)NC(=O)[C@H]([C@@H](C)O)NC(=O)[C@H](C(C)C)NC(=O)[C@H](CC3CCCCC3)NC(=O)[C@H](CCN)NC(=O)[C@@H](CC(C)C)NC(=O)[C@H](CCCN)NC(=O)[C@H](CCCNC(N)=O)NC(=O)[C@H](Cc3ccc(-c4ccccc4)cc3)NC(=O)[C@H](CC(C)C)NC2=O)c1 [Compound 1306] ({CH2CO}-NYD[Phe(3-Me)]L[Bip][Cit][Orn][dL][Dab][Cha]VTCA-NH2; thioether N-14)	14.6 nM
CC(C)C[C@H]1NC(=O)[C@H](CCCN)NC(=O)[C@H](CCC(=O)O)NC(=O)[C@H](Cc2ccc(-c3ccccc3)cc2)NC(=O)[C@H](C(C)C)NC(=O)[C@H](Cc2c[nH]c3ccccc23)NC(=O)[C@H](CC(=O)O)NC(=O)[C@H](Cc2ccc(OCC(=O)O)cc2)NC(=O)[C@H](CN)NC(=O)CSC[C@@H](C(=O)N[C@@H](C)C(N)=O)NC(=O)[C@H]([C@@H](C)O)NC(=O)[C@H](C(C)C)NC(=O)[C@H](Cc2cc(F)cc(F)c2)NC(=O)[C@H](CCN)NC1=O [Compound 1476] ({CH2CO}-[Dap]Y(Carboxymethyl)DWV[Bip]E[Orn][dL][Dab][Phe(3,5-F2)]VTCA-NH2; thioether N-14)	33 nM
CC(C)C[C@H]1NC(=O)[C@H](CCCN)NC(=O)[C@H](CCCNC(N)=O)NC(=O)[C@H](Cc2ccc(-c3ccccc3)cc2)NC(=O)[C@H](C(C)C)NC(=O)[C@H](Cc2c[nH]c3ccccc23)NC(=O)[C@H](CC(=O)O)NC(=O)[C@H](Cc2ccc(OCC(=O)O)cc2)NC(=O)[C@H](CN)NC(=O)CSC[C@@H](C(=O)N[C@@H](C)C(N)=O)NC(=O)[C@H]([C@@H](C)O)NC(=O)[C@H](C(C)C)NC(=O)[C@H](Cc2cccnc2)NC(=O)[C@H](CCN)NC1=O [Compound 1350]	162 nM
Cc1cccc(C[C@@H]2NC(=O)[C@H](CC(=O)O)NC(=O)[C@H](Cc3ccncc3)NC(=O)[C@H](CN)NC(=O)CSC[C@@H](C(=O)N[C@@H](C)C(N)=O)NC(=O)[C@H]([C@@H](C)O)NC(=O)[C@H](C(C)C)NC(=O)[C@H](CC(C)C)NC(=O)[C@H](CCN)NC(=O)[C@@H](CC(C)C)NC(=O)[C@H](CCCN)NC(=O)[C@H](C(C)C)NC(=O)[C@H](Cc3ccc(-c4ccccc4)cc3)NC(=O)[C@H](C(C)C)NC2=O)c1 [Compound 1223] ({CH2CO}-[Dap][4Pal]D[Phe(3-Me)]V[Bip]V[Orn][dL][Dab]LVTCA-NH2; thioether N-14)	6.1 nM
CC(C)C[C@H]1NC(=O)[C@H](CCCN)NC(=O)[C@H](CCC(=O)O)NC(=O)[C@H](Cc2ccc(-c3ccccc3)cc2)NC(=O)[C@H](C(C)C)NC(=O)[C@H](Cc2c[nH]c3ccccc23)NC(=O)[C@H](CC(=O)O)NC(=O)[C@H](Cc2ccc(C(=O)O)cc2)NC(=O)[C@H](Cc2ccc(OCC(=O)O)cc2)NC(=O)CSC[C@@H](C(=O)N[C@@H](C)C(N)=O)NC(=O)[C@H]([C@@H](C)O)NC(=O)[C@H](C(C)C)NC(=O)[C@H](Cc2ccc(O)cc2)NC(=O)[C@H](CCN)NC1=O [Compound 1687] ({CH2CO}-Y(Carboxymethyl)[Phe(4-COOH)]DWV[Bip]E[Orn][dL][Dab]YVTCA-NH2; thioether N-14)	368 nM
CC(C)C[C@H]1NC(=O)[C@H](CCCN)NC(=O)[C@H](CCC(=O)O)NC(=O)[C@H](Cc2ccc(-c3ccccc3)cc2)NC(=O)[C@H](C(C)C)NC(=O)[C@H](Cc2c[nH]c3ccccc23)NC(=O)[C@H](CC(=O)O)NC(=O)[C@H](Cc2ccc(OCC(=O)O)cc2)NC(=O)[C@H](CN)NC(=O)CSC[C@@H](C(=O)N[C@@H](C)C(N)=O)NC(=O)[C@H]([C@@H](C)O)NC(=O)[C@H](C(C)C)NC(=O)[C@H](Cc2ccc(F)cc2F)NC(=O)[C@H](CCN)NC1=O [Compound 1479] ({CH2CO}-[Dap]Y(Carboxymethyl)DWV[Bip]E[Orn][dL][Dab][Phe(2,4-F2)]VTCA-NH2; thioether N-14)	347 nM
CC(C)C[C@H]1NC(=O)[C@H](CCCN)NC(=O)[C@H](C(C)C)NC(=O)[C@H](Cc2ccc(-c3ccccc3)cc2)NC(=O)[C@H](C(C)C)NC(=O)[C@H](Cc2c[nH]c3ccccc23)NC(=O)[C@H](CC(=O)O)NC(=O)[C@H](Cc2ccc(OCC(=O)O)cc2)NC(=O)[C@H](Cc2ccncc2)NC(=O)CSC[C@@H](C(=O)N[C@@H](C)C(N)=O)NC(=O)[C@H]([C@@H](C)O)NC(=O)[C@H](C(C)C)NC(=O)[C@H](CC2CCCCC2)NC(=O)[C@H](Cc2cnc[nH]2)NC1=O [Compound 1607]	14.6 nM
CCCC[C@@H]1NC(=O)[C@H](CCCNC(=N)N)NC(=O)[C@@H](CC(C)C)NC(=O)[C@H](CCCN)NC(=O)[C@H]([C@@H](C)CC)NC(=O)[C@H](Cc2ccc(-c3ccccc3)cc2)NC(=O)[C@H](C(C)C)NC(=O)[C@H](Cc2c[nH]c3ccccc23)NC(=O)[C@H](CC(=O)O)NC(=O)[C@H](Cc2ccc(O)cc2)NC(=O)[C@H](CC(N)=O)NC(=O)CSC[C@@H](C(=O)N[C@@H](C)C(N)=O)NC(=O)[C@H]([C@@H](C)O)NC(=O)[C@H](C(C)C)NC1=O [Compound 1151] ({CH2CO}-NYDWV[Bip]I[Orn][dL]R[Nle]VTCA-NH2; thioether N-14)	70.9 nM
C#CC[C@H](NC(=O)[C@H](CCN)NC(=O)[C@@H]1CSCC(=O)N[C@@H](Cc2ccncc2)C(=O)N[C@@H](Cc2ccc(OCC(=O)O)cc2)C(=O)N[C@@H](CC(=O)O)C(=O)N[C@@H](Cc2cccc(C)c2)C(=O)N[C@@H](Cc2ccc(OCC(=O)O)cc2)C(=O)N[C@@H](Cc2ccc(-c3ccccc3)cc2)C(=O)N[C@@H](Cc2ccc(OCC(=O)O)cc2)C(=O)N[C@@H](CCCN)C(=O)N[C@H](CC(C)C)C(=O)N[C@@H](CCN)C(=O)N[C@@H](CC2CCCCC2)C(=O)N[C@@H](C(C)(C)O)C(=O)N[C@@H](CO)C(=O)N1)C(=O)O [Compound 2317] ({CH2CO}-[4Pal]Y(Carboxymethyl)D[Phe(3-Me)]Y(Carboxymethyl)[Bip]Y(Carboxymethyl)[Orn][dL][Dab][Cha][Val(3-OH)]SC[Dab][Pra]-OH; thioether N-14)	576 nM
CC(C)C[C@@H]1NC(=O)[C@H](CCCNC(=N)N)NC(=O)[C@@H](CC(C)C)NC(=O)[C@H](C)NC(=O)[C@H](CCCNC(=N)N)NC(=O)[C@H](Cc2ccc(-c3ccccc3)cc2)NC(=O)[C@H](C(C)C)NC(=O)[C@H](Cc2c[nH]c3ccccc23)NC(=O)[C@H](CC(=O)O)NC(=O)[C@H](Cc2ccc(O)cc2)NC(=O)[C@H](CC(N)=O)NC(=O)CSC[C@@H](C(=O)N[C@@H](C)C(N)=O)NC(=O)[C@H]([C@@H](C)O)NC(=O)[C@H](C(C)C)NC1=O [Compound 1006] ({CH2CO}-NYDWV[Bip]RA[dL]RLVTCA-NH2; thioether N-14)	98.1 nM
CC(C)C[C@H]1NC(=O)[C@H](CCCN)NC(=O)[C@H](C(C)C)NC(=O)[C@H](Cc2ccc(-c3ccccc3)cc2)NC(=O)[C@H](C(C)C)NC(=O)[C@H](Cc2c[nH]c3ccccc23)NC(=O)[C@H](CC(=O)O)NC(=O)[C@H](Cc2ccc(OCC(=O)O)cc2)NC(=O)[C@H](CCO)NC(=O)CSC[C@@H](C(=O)N[C@@H](C)C(N)=O)NC(=O)[C@H](C(C)O)NC(=O)[C@H](C(C)C)NC(=O)[C@H](CC2CCCCC2)NC(=O)[C@H](CCN)NC1=O (stereo partly drawn) [Compound 2514]	5.4 nM
CC(C)C[C@H]1NC(=O)[C@H](CCCN)NC(=O)[C@H](CCCNC(N)=O)NC(=O)[C@H](Cc2ccc(-c3ccccc3)cc2)NC(=O)[C@H](C(C)C)NC(=O)[C@H](Cc2c[nH]c3ccccc23)NC(=O)[C@H](CC(=O)O)NC(=O)[C@](C)(Cc2ccccc2)NC(=O)[C@H](CN)NC(=O)CSC[C@@H](C(=O)N[C@@H](C)C(N)=O)NC(=O)[C@H]([C@@H](C)O)NC(=O)[C@H](C(C)C)NC(=O)[C@H](CC2CCCCC2)NC(=O)[C@H](CCN)NC1=O [Compound 2137] ({CH2CO}-[Dap][αMeF]DWV[Bip][Cit][Orn][dL][Dab][Cha]VTCA-NH2; thioether N-14)	11.4 nM
CC[C@H](C)[C@@H]1NC(=O)[C@H](Cc2ccc(-c3ccccc3)cc2)NC(=O)[C@H](C(C)C)NC(=O)[C@H](Cc2c[nH]c3ccccc23)NC(=O)[C@H](CC(=O)O)NC(=O)[C@H](Cc2ccc(OCC(=O)O)cc2)NC(=O)[C@H](CN)NC(=O)CSC[C@@H](C(=O)N[C@@H](C)C(N)=O)NC(=O)[C@H]([C@@H](C)O)NC(=O)[C@H](C(C)C)NC(=O)[C@H](CC(C)C)NC(=O)[C@H](CCN)NC(=O)[C@@H](CC(C)C)NC(=O)[C@H](CCCN)NC1=O [Compound 1054] ({CH2CO}-[Dap]Y(Carboxymethyl)DWV[Bip]I[Orn][dL][Dab]LVTCA-NH2; thioether N-14)	9 nM
